The results in this text go back to patent publication US5411971A, “N-alkylenepiperidino compounds, their enantiomers and pharmaceutical compositions” (Elf Sanofi, priority 1991, dated 1995).

The target of experiment [1] is T1, eledoisin binding, rat membranes (Rattus norvegicus, UniProt P16177).
T1 construct: rat membranes; from tissue; brain cortex inferred from the cited Foster et al. 1988
T1 sequence (P16177 1-452): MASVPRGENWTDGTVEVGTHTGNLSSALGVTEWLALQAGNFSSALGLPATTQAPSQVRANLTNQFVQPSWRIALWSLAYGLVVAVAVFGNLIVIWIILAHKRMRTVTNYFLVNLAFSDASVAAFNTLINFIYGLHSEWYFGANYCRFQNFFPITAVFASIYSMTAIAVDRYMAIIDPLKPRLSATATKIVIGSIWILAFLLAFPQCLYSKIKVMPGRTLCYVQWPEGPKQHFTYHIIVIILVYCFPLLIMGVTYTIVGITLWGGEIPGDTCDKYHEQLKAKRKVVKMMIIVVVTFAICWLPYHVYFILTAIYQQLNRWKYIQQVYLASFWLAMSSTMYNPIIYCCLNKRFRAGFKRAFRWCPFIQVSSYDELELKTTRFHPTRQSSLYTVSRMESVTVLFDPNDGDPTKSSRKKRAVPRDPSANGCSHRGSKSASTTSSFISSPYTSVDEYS
Description: Antagonism of binding to eledoisin, rat membranes. The settings on record: read-out: Ki, antagonises the binding of eledoisin. The text has this:
Foster et al., Br. J. Pharmacol., 1988, 94, 602-608.
Eledoisin is a peptide of batrachian origin which is equivalent to neurokinin B.

The target of experiment [2] is T2, neurokinin A binding, rat duodenum membranes (Rattus norvegicus, UniProt P16610).
T2 construct: rat duodenum membranes; from tissue; host or cells: rat duodenum membranes
T2 sequence (P16610 1-390): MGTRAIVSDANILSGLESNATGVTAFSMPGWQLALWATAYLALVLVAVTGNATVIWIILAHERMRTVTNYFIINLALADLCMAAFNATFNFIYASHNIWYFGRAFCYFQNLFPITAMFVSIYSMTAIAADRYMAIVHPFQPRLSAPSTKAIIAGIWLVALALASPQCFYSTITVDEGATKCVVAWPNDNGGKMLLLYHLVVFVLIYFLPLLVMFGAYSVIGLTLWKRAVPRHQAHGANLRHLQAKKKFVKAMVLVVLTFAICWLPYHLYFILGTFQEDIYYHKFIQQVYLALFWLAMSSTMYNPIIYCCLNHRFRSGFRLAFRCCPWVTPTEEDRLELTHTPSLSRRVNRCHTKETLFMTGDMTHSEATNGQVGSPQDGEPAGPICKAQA
As to the kind of experiment: Antagonism of binding to NKA (neurokinin A), rat duodenum membranes. Conditions: read-out: Ki, antagonises the binding of neurokinin A.

A further experiment has as its system substance P binding. As to the kind of experiment: Antagonism of binding of substance P (rat cortex membranes or IM9 cells, not stated which). Conditions: preparation (rat cortex membranes or IM9 lymphoblastic cells) not given; read-out: Ki, antagonises the binding of substance P.

Where a name gives a salt, the structure may show the parent alone.

In general, Ki refers to the equilibrium dissociation constant of an inhibitor or competing ligand from its target. `O=C(NCC(CCN1CCC(Nc2ccccc2)CC1)c1ccc(Cl)c(Cl)c1)c1ccc(F)c2ccccc12` (stereo not drawn) [Compound 9]: in experiment [1], the Ki is 400 nM.

In the case of `CC(=O)N(c1ccccc1)C1CCN(CCC(CN(C)C(=O)c2ccccc2)c2ccc(Cl)c(Cl)c2)CC1` (stereo not drawn) [Compound 8, N-[4-(N'-4-Acetylanilino-1-piperidinyl)-2-(3,4-dichlorophenyl)butyl]-N-methylbenzamide hydrochloride], the inhibitory constant (Ki) in experiment [2] came out at 5.5 nM. `O=C(NCC(CCN1CCC(Sc2ccccn2)CC1)c1ccc(Cl)c(Cl)c1)c1ccc(Cl)cc1Cl` (stereo not drawn) [Compound 4]: the inhibition constant (Ki) in the experiment on substance P binding stood at 41 nM.
